From patent publication US8101773B2, “Hydroxy methyl phenyl pyrazolyl urea compounds useful in the treatment of cancer” (Bayer Healthcare LLC, priority 2006, dated 2012)
Changes are numbered by the printed parent chain. Where a name gives a salt, the structure may show the parent alone.

Experiments:
Bcr-Abl-wt kinase = target: T1, Bcr-Abl-wt kinase (Homo sapiens, UniProt P00519); assay: Bcr-Abl wild type biochemical assay (MBP phosphorylation, 33P-ATP); conditions: 50 μM ATP
T1 sequence (P00519 242-493 limits assumed): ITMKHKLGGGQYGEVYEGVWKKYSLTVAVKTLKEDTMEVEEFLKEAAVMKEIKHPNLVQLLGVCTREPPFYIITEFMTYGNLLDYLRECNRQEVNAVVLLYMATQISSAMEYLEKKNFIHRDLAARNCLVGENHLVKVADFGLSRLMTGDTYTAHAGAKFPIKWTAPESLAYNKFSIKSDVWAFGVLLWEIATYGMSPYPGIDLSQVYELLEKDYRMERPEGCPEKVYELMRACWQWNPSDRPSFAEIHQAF
Experimental: (§1) Bcr-Abl Wild Type and Mutant T315I Biochemical Assay
(§2) Bcr-Abl-wt or mutant Bcr-Abl-T3151 kinase (0.17 nM) was incubated with Myelin Basic Protein (MBP, 2 μM) in assay buffer consisting of 50 mM Tris pH 7.5, 10 mM MgCl2, 1 mM EGTA, 2 mM DTT, 50 μM ATP and 0.4 μCi of ^33P-ATP. Test compounds were added at varying concentrations (final DMSO conc=1%) prior to the addition of ATP. The reaction mixture was incubated for 1 hour at 32° C. The reaction was then stopped by addition of phosphoric acid (final conc=1%) and samples were transferred to filtermats and read in a betaplate reader. Inhibition of MBP phosphorylation by Bcr-Abl-wt or Bcr-Abl-T3151 was analyzed by using a 4 parameter fit and in-house software.

[1] = target: T2, mutant Bcr-Abl-T3151 kinase (Homo sapiens, UniProt P00519, T315I); assay: Bcr-Abl mutant T315I biochemical assay (MBP phosphorylation, 33P-ATP); conditions: 50 μM ATP
T2 sequence (P00519 242-493 T315I limits assumed): T1 sequence (P00519 242-493 limits assumed) with T74I
Experimental: as §1, §2

[2] = target: T3, human recombinant c-Met intracellular kinase domain (Homo sapiens, UniProt P08581); assay: c-Met biochemical assay, ELISA format; conditions: 0.2 μM ATP
T3 construct: C-terminal HIS-tagged intracellular kinase domain (956 to 1390 amino acids) human recombinant c-Met; His tag (C)
Experimental: An ELISA format was used for the c-Met biochemical assay. This assay uses the C-terminal HIS-tagged intracellular kinase domain (956 to 1390 amino acids) human recombinant c-Met in 96-well plates. 96-Well plates (Costar #9018) coated with poly(GluTyr) (Sigma # P0275) were used in this assay. The poly(GluTyr) substrate coated on the plate was phosphorylated in a 100 μL reaction volume with 2 nM c-Met protein in an assay buffer (50 mM HEPES pH7.0, 5 mM MnCl2, 0.1% BSA, 0.5 mM sodium orthovanadate, 0.1% β-mercaptoethanol), with 0.2 μM ATP (Sigma #A7699). […] After 25 minutes of incubation, the assay reaction was stopped with 25 μL of 100 mM EDTA. The plates were then washed, and wells were treated with 100 μL of 80 ng/mL anti-4G10-HRP antibody (Upstate #16-105) for 1 h. Plates were washed one final time, and were developed with 100 μL 3,3′,5,5′-TMB (Sigma #T8665), and quenched with 100 μL 1M HCl. Plates were read on a Victor 2 plate reader (Perkin Elmer) and IC50 analysis and calculation were performed using in-house software.

[3] = target: T4, Flk-1 (murine VEGFR-2) kinase domain (Mus musculus, UniProt P35918); assay: Flk-1 (murine VEGFR-2) biochemical assay, TR-FRET; conditions: 10 μM ATP
T4 construct: 7 nM Flk-1 (kinase domain)
Experimental: Flk-1 (Murine VEGFR-2) Biochemical Assay
This assay was performed in 96-well opaque plates (Costar 3915) in the TR-FRET format. Reaction conditions were as follows: 10 μM ATP, 25 nM poly GT-biotin, 2 nM Eu-labelled phospho-Tyr Ab (PY20 Perkin Elmer), 10 nM APC (Perkin Elmer), 7 nM Flk-1 (kinase domain), 1% DMSO, 50 mM HEPES pH 7.5, 10 mM MgCl2, 0.1 mM EDTA, 0.015% BRIJ, 0.1 mg/mL BSA, 0.1% mercapto-ethanol). Reaction was initiated upon addition of enzyme. Final reaction volume in each well was 100 μL. Plates were read at both 615 and […] on a Perkin Elmer Victor V Multilabel counter at about 1.5-2.0 hours after reaction initiation. Signal was calculated as a ratio: (665 nm/615 nm)*10000 for each well.

[4] = In vitro tumor cell proliferation assay (Cell Titre-Glo), cell lines of interest; type: cell-based; conditions: 72 hours, Cell Titer Glo; read-out: antiproliferative properties (IC50) in one or more cell lines of interest
Text: In vitro Tumor Cell Proliferation Assay

[5] = test system: Imatinib-resistant Bcr-Abl mutations; conditions: cited from earlier work
Bcr-Abl kinase = conditions: greater potency than Imatinib; cited from earlier work
Bcr-Abl E255K mutant = conditions: cited from earlier work
early phase CML = conditions: patients with early phase CML; cited from earlier work

T4 sequence (P35918 832-1160 limits assumed): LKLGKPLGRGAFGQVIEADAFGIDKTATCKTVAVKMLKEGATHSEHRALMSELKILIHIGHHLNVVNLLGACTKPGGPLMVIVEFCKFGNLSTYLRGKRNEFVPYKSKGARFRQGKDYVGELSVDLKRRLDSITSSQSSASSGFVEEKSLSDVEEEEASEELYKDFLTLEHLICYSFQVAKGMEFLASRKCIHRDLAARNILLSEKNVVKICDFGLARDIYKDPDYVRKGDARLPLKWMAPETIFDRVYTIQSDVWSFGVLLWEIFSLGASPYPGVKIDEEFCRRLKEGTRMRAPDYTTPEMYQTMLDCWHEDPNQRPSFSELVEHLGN
T3 sequence (P08581 956-1390): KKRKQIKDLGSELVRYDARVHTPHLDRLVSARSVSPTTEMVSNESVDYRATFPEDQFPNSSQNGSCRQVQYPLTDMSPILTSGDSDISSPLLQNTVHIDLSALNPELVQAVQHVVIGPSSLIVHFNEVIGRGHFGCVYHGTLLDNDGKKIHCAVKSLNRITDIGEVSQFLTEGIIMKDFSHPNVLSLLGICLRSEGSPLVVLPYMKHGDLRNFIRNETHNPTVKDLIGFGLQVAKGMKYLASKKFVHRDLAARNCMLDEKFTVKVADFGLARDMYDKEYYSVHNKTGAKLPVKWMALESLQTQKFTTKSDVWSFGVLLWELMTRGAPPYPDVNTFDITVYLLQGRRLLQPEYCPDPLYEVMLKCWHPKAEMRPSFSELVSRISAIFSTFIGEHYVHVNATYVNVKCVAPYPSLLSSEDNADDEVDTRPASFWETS

| IC50 (Bcr-Abl-wt kinase) [nM] | IC50 [1] [nM] | IC50 [2] [nM] | IC50 [3] [nM] | IC50 [4] [nM] | Compound | inhibition of Imatinib-resistant Bcr-Abl mutations [5] | potency of inhibition of Bcr-Abl kinase activity relative to Imatinib (Bcr-Abl kinase) [fold] | inhibition of E255K mutant in a biochemical assay (Bcr-Abl E255K mutant) | degree of response at both haematological and cytogenetic levels (early phase CML) |
| --- | --- | --- | --- | --- | --- | --- | --- | --- | --- |
| < 1000 | < 1000 | < 1000 | < 1000 | – | CNC(=O)c1cc(Oc2ccc(NC(=O)Nc3cc(C(C)(C)C)nn3-c3cccc(COC(=O)[C@@H](N)C(C)C)c3)c(F)c2)ccn1 [Example 10, 3-(3-tert-Butyl-5-{[(2-fluoro-4-{[2-(methylcarbamoyl)pyridin-4-yl]oxy}-phenyl)carbamoyl]amino}-1H-pyrazol-1-yl)benzyl L-valinate] | – | – | – | – |
| < 1000 | < 1000 | < 1000 | < 1000 | – | CNC(=O)c1cc(Oc2ccc(NC(=O)Nc3cc(C(C)(C)C)nn3-c3cccc(COC(=O)COC)c3)c(F)c2)ccn1 [Example 15, 3-(3-tert-Butyl-5-{[(2-fluoro-4-{[2-(methylcarbamoyl)pyridin-4-yl]oxy}phenyl)carbamoyl]amino}-1H-pyrazol-1-yl)benzyl methoxyacetate] | – | – | – | – |
| – | – | – | – | < 5000 | CNC(=O)c1cc(Oc2ccc(NC(=O)Nc3cc(C(C)(C)C)nn3-c3cccc(COP(=O)(O)O)c3)c(F)c2)ccn1 [Example 13, 3-(3-tert-Butyl-5-{[(2-fluoro-4-{[2-(methylcarbamoyl)pyridin-4-yl]oxy}-phenyl)carbamoyl]amino}-1H-pyrazol-1-yl)benzyl dihydrogen phosphate dihydrochloride] | – | – | – | – |
| < 1000 | < 1000 | < 1000 | < 1000 | – | CCC(=O)OCc1cccc(-n2nc(C(C)(C)C)cc2NC(=O)Nc2ccc(Oc3ccnc(C(=O)NC)c3)cc2F)c1 [Example 16, 3-(3-tert-butyl-5-{[(2-fluoro-4-{[2-(methylcarbamoyl)pyridin-4-yl]oxy}phenyl)carbamoyl]amino}-1H-pyrazol-1-yl)benzyl propionate] | – | – | – | – |
| – | – | – | – | – | Cc1cn(-c2cc(NC(=O)c3ccc(C)c(Nc4nccc(-c5cccnc5)n4)c3)cc(C(F)(F)F)c2)cn1 [AMN-107, nilotinib] | inhibit most Imatinib-resistant Bcr-Abl mutations, except for T315I | 20 | somewhat weak inhibition | – |
| – | – | – | – | – | Cc1ccc(NC(=O)c2ccc(CN3CCN(C)CC3)cc2)cc1Nc1nccc(-c2cccnc2)n1 [Imatinib] | – | – | – | greater than 90% |
| < 1000 | < 1000 | < 1000 | < 1000 | < 5000 | CNC(=O)c1cc(Oc2ccc(NC(=O)Nc3cc(C(C)(C)C)nn3-c3cccc(COC(=O)CCC(=O)O)c3)c(F)c2)ccn1 [Example 14, 4-{[3-(3-tert-Butyl-5-{[(2-fluoro-4-{[2-(methylcarbamoyl)pyridin-4-yl]oxy}-phenyl)carbamoyl]amino}-1H-pyrazol-1-yl)benzyl]oxy}-4-oxobutanoic acid] | – | – | – | – |
| – | < 20000 | < 20000 | – | < 5000 | CNC(=O)c1cc(Oc2ccc(NC(=O)Nc3cc(C(C)(C)C)nn3-c3cccc(COP(=O)(OC(C)(C)C)OC(C)(C)C)c3)c(F)c2)ccn1 [Example 12, Di-tert-butyl 3-(3-tert-butyl-5-{[(2-fluoro-4-{[2-(methylcarbamoyl)pyridin-4-yl]oxy}phenyl)carbamoyl]amino}-1H-pyrazol-1-yl)benzyl phosphate] | – | – | – | – |
| – | < 20000 | < 20000 | – | – | CNC(=O)c1cc(Oc2ccc(NC(=O)Nc3cc(C(C)(C)C)nn3-c3cccc(COC(=O)CC(C)C)c3)c(F)c2)ccn1 [Example 17, 3-(3-tert-Butyl-5-{[(2-fluoro-4-{[2-(methylcarbamoyl)pyridin-4-yl]oxy}phenyl)carbamoyl]amino}-1H-pyrazol-1-yl)benzyl 3-methylbutanoate] | – | – | – | – |
| < 1000 | < 1000 | < 1000 | < 1000 | < 5000 | CNC(=O)c1cc(Oc2ccc(NC(=O)Nc3cc(C(C)(C)C)nn3-c3cccc(COC(C)=O)c3)c(F)c2)ccn1 [Example 11, 3-(3-tert-Butyl-5-{[(2-fluoro-4-{[2-(methylcarbamoyl)pyridin-4-yl]oxy}-phenyl)carbamoyl]amino}-1H-pyrazol-1-yl)benzyl acetate] | – | – | – | – |
| < 1000 | < 1000 | < 1000 | < 1000 | < 5000 | CNC(=O)c1cc(Oc2ccc(NC(=O)Nc3cc(C(C)(C)C)nn3-c3cccc(COC(=O)[C@H](N)C(C)C)c3)c(F)c2)ccn1 [Example 9, 3-(3-tert-Butyl-5-{[(2-fluoro-4-{[2-(methylcarbamoyl)pyridin-4-yl]oxy}phenyl)-carbamoyl]amino}-1H-pyrazol-1-yl)benzyl D-valinate] | – | – | – | – |
| – | < 20000 | < 20000 | – | – | CNC(=O)c1cc(Oc2ccc(NC(=O)Nc3cc(C(C)(C)C)nn3-c3cccc(COC(=O)[C@H](NC(=O)OCC4c5ccccc5-c5ccccc54)C(C)C)c3)c(F)c2)ccn1 [Example 8, 3-(3-tert-Butyl-5-{[(2-fluoro-4-{[2-(methylcarbamoyl)pyridin-4-yl]oxy}phenyl)carbamoyl]amino}-1H-pyrazol-1-yl)benzyl-N-[(9H-fluoren-9-ylmethoxy)carbonyl]D valinate] | – | – | – | – |
